Where a name gives a salt, the structure may show the parent alone.
What was measured:
[1] = molecular target: ROCK2 (Homo sapiens, UniProt O75116); experiment: Kinase inhibition (ROCKI & ROCKII), radiometric 33P-ATP assay; format: biochemical; conditions: ROCK 1 nM, 120 min at room temperature
Protocol: On-target activity against ROCK was measured in a biochemical assay, using the following reagents: Base Reaction buffer; 20 mM Hepes (pH 7.5), 10 mM MgCl2, 1 mM EGTA, 0.02% Brij35, 0.02 mg/ml BSA, 0.1 mM Na3VO4, 2 mM DTT, 1% DMSO. Required cofactors are added individually to each kinase reaction. The reaction procedure first involved the preparation of a peptide substrate in a freshly prepared reaction buffer. Required cofactors were then added to the substrate solution. ROCK (1 nM final concentration) was then delivered to the substrate solution. After gentle mix, DMSO solutions of the test compounds were added to the enzyme. Substrate mix ^33P-ATP (specific activity 0.01 μCi/μl final) was then delivered into the reaction mixture to initiate the reaction. The kinase reaction was incubated for 120 min. at room temperature. Reactions were then spotted onto P81 ion exchange paper (Whatman #3698-915). Filters were washed extensively in 0.1% Phosphoric acid. A radiometric count was then performed and IC50 values were subsequently determined.
The IC50 values obtained (in accordance with the protocol set forth above) are represented as follows: “+++” means IC50 below 0.1 μM, “++” means IC50 between 0.1 μM and 1 μM; “+” means IC50 between 1 and 10 μM and “ND” means “not determined yet”.

[2] = Stability assay in rabbit aqueous humor; format: in vitro ADME; conditions: 1 μM compound in rabbit aqueous humor, LC-MS/MS; read-out: t½ AH
Protocol: Compounds are incubated at a concentration of 1 μM in rabbit aqueous humor (AH). Samples are taken at fixed time points and the remnant of compound is determined by LC-MS/MS after protein precipitation. Half life is expressed in minutes.

[3] = tested on: MLC-T18/S19 phosphorylation; experiment: Myosin light chain phosphorylation assay (ELISA) in A7r5 cells; format: cell-based, Rat; conditions: for EC50: Rattus norvegicus, MLC-T18/S19 phosphorylation, A7r5 cells, serum-free medium
Protocol: Rat smooth muscle cell line A7r5 is used. The endogenous expression of ROCK results in a constitutive phosphorylation of the regulatory myosin light chain at T18/S19. A7r5 cells were plated in DMEM supplemented with 10% FCS in multiwall cell culture plates. After serum starvation overnight, cells were incubated with compounds in serum-free medium.
Quantification of MLC-T18/S19 phosphorylation is assesses in 96 well-plates via ELISA using a phspho-MLC-T18/S19 specific antibody and a secondary detection antibody. Relative MLC phosphorylation is measured with respect to untreated cells (Positive control, 1.0) and cells treated with 100 μM Y-27632 (Negative control, 0.0). EC50 values were determined using GraphPad Prism 5.01 software using a nonlinear regression curve fit with variable hill slope.
The […] values obtained (in accordance with the protocols set forth above) are represented as follows: “+++” means EC50 below 0.3 μM, “++” means EC50 between 0.3 μM and 1 μM; “+” means EC50 between 1 and 10 μM and “−” means EC50>10 μM.

[4] = Stability assay in human plasma; format: in vitro ADME; conditions: 1 μM compound, LC-MS/MS, read-out: t½ human plasma
Protocol: (§1) Compounds are incubated at a concentration of 1 μM in human or animal (rat, mice or rabbit) […] or whole blood. Samples are taken at fixed time points and the remnant of compound is determined by LC-MS/MS after protein precipitation. Half life is expressed in minutes.

[5] = Stability assay in human whole blood; format: in vitro ADME; conditions: 1 μM compound, LC-MS/MS, read-out: t½ human whole blood
Protocol: as §1

Chain of ROCK2 (O75116 whole entry, species assumed): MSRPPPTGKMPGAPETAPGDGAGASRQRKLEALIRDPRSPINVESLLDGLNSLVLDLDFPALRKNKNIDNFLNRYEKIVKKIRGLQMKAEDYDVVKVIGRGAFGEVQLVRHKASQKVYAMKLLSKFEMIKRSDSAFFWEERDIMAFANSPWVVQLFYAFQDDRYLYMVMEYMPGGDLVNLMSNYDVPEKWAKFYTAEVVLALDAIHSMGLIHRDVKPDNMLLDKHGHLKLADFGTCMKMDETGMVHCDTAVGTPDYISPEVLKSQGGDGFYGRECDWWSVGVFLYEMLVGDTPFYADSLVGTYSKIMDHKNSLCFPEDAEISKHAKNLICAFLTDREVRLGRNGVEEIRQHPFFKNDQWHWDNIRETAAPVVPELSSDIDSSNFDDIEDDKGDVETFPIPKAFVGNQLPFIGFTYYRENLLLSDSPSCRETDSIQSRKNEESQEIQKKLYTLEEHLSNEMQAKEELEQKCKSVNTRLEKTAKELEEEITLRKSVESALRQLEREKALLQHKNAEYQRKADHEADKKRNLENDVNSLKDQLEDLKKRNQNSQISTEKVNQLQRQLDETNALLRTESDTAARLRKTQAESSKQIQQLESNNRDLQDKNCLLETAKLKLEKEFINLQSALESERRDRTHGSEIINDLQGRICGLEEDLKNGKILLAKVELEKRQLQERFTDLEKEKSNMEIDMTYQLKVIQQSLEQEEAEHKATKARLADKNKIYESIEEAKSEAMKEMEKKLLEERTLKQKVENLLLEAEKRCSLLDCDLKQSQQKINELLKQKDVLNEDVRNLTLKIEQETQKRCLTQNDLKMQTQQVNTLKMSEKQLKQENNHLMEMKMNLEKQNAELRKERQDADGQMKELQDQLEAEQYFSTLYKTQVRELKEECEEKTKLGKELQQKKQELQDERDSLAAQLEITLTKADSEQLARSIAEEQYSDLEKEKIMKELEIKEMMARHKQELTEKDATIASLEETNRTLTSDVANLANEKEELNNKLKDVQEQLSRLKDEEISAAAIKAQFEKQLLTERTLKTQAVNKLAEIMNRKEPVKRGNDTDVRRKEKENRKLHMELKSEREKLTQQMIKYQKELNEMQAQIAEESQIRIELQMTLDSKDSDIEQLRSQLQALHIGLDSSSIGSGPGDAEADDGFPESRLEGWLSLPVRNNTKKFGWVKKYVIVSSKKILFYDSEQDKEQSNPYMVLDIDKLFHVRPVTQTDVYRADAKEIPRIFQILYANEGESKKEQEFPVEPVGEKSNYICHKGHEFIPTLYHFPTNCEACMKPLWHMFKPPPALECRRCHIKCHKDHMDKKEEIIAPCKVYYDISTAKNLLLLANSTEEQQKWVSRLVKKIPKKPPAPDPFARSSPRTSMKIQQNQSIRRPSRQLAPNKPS

Row | SMILES | IC50 [1] | half-life at 1 μM [2] | EC50 [3] | half-life at 1 μM [4] | half-life at 1 μM [5] | difference in EC50 values between compound 32 and its metabolite Met1 ([3]; MLC phosphorylation assay, FIG. 1, Met1 versus parent compound 32)
1 | COC(=O)c1cccc(C(=O)Nc2cccc(CN3CCC(Nc4cccc5cnccc45)C3)c2)c1 (stereo not shown) [Compound 1, Methyl 3-((3-((3-(isoquinolin-5-ylamino)pyrrolidin-1-yl)methyl)phenyl)carbamoyl)benzoate] | < 100 nM | > 120 min | < 300 nM | – | – | –
2 | COC(=O)c1ccc(C(=O)Nc2cccc(CN3CCC(Nc4cccc5cnccc45)C3)c2)cc1 (stereo not shown) [Compound 2, Methyl 4-((3-((3-(isoquinolin-5-ylamino)pyrrolidin-1-yl)methyl)phenyl)carbamoyl)benzoate] | < 100 nM | – | < 300 nM | – | – | –
3 | COC(=O)c1cccc(C(=O)Nc2cc(CN3CCCC(Nc4ccc5[nH]ncc5c4)C3)ccc2C)c1 (stereo not shown) [Compound 3, Methyl 3-((5-((3-((1H-indazol-5-yl)amino)piperidin-1-yl)methyl)-2-methylphenyl)carbamoyl)benzoate dihydrochloride] | – | > 120 min | – | 33 min | – | –
4 | COC(=O)c1cccc(C(=O)Nc2cc(CN3CCC(Nc4cccc5cnccc45)C3)ccc2C)c1 (stereo not shown) [Compound 7] | – | > 120 min | – | 31 min | – | –
5 | COC(=O)c1ccc(C(=O)Nc2cc(CN3CCCC(Nc4ccc5[nH]ncc5c4)C3)ccc2C)cc1 (stereo not shown) [Compound 15] | – | > 120 min | – | – | – | –
6 | COC(=O)c1cccc(C(=O)Nc2cccc(CNC3CCC(Nc4cccc5cnccc45)CC3)c2)c1 (stereo not shown) [Compound 16] | < 100 nM | – | < 300 nM | < 20 min | – | –
7 | COC(=O)c1ccc(C(=O)Nc2cccc(CNC3CCC(Nc4cccc5cnccc45)CC3)c2)cc1 (stereo not shown) [Compound 17] | < 100 nM | – | – | – | – | –
8 | COC(=O)c1cccc(C(=O)Nc2cccc(CN3CCC(Nc4cccc5cnccc45)CC3)c2)c1 [Compound 18] | < 100 nM | – | – | – | – | –
9 | COC(=O)c1ccc(C(=O)Nc2cccc(CN3CCC(Nc4cccc5cnccc45)CC3)c2)cc1 [Compound 19] | < 100 nM | – | – | – | – | –
10 | CCCOC(=O)c1cccc(C(=O)Nc2cccc(CN3CCC(Nc4cccc5cnccc45)C3)c2)c1 (stereo not shown) [Compound 21] | < 100 nM | 120 min | < 300 nM | < 20 min | < 20 min | –
11 | COCCOC(=O)c1cccc(C(=O)Nc2cccc(CN3CCC(Nc4cccc5cnccc45)C3)c2)c1 (stereo not shown) [Compound 22] | < 100 nM | > 120 min | < 300 nM | < 20 min | < 20 min | –
12 | O=C(Nc1cccc(CN2CCC(Nc3cccc4cnccc34)C2)c1)c1cccc(C(=O)OCC2CCCO2)c1 (stereo not shown) [Compound 23] | < 100 nM | 77 min | – | < 20 min | < 20 min | –
13 | CCCOC(=O)c1ccc(C(=O)Nc2cccc(CN3CCC(Nc4cccc5cnccc45)C3)c2)cc1 (stereo not shown) [Compound 24] | < 100 nM | – | < 300 nM | – | – | –
14 | COCCOC(=O)c1ccc(C(=O)Nc2cccc(CN3CCC(Nc4cccc5cnccc45)C3)c2)cc1 (stereo not shown) [Compound 25] | < 100 nM | – | – | – | – | –
15 | O=C(Nc1cccc(CN2CCC(Nc3cccc4cnccc34)C2)c1)c1ccc(C(=O)OCC2CCCO2)cc1 (stereo not shown) [Compound 26] | < 100 nM | – | – | – | – | –
16 | CCCOC(=O)c1cccc(C(=O)Nc2cccc(CNC3CCC(Nc4cccc5cnccc45)CC3)c2)c1 (stereo not shown) [Compound 27] | < 100 nM | > 120 min | – | < 20 min | – | –
17 | COCCOC(=O)c1cccc(C(=O)Nc2cccc(CNC3CCC(Nc4cccc5cnccc45)CC3)c2)c1 (stereo not shown) [Compound 28] | < 100 nM | > 120 min | – | < 20 min | – | –
18 | O=C(Nc1cccc(CNC2CCC(Nc3cccc4cnccc34)CC2)c1)c1cccc(C(=O)OCC2CCCO2)c1 (stereo not shown) [Compound 29] | < 100 nM | > 120 min | – | < 20 min | – | –
19 | CCCOC(=O)c1ccc(C(=O)Nc2cccc(CNC3CCC(Nc4cccc5cnccc45)CC3)c2)cc1 (stereo not shown) [Compound 30] | < 100 nM | – | – | – | – | –
20 | COCCOC(=O)c1ccc(C(=O)Nc2cccc(CNC3CCC(Nc4cccc5cnccc45)CC3)c2)cc1 (stereo not shown) [Compound 31] | < 100 nM | – | – | – | – | –
21 | O=C(Nc1cccc(CNC2CCC(Nc3cccc4cnccc34)CC2)c1)c1ccc(C(=O)OCC2CCCO2)cc1 (stereo not shown) [Compound 32] | < 100 nM | – | 300 to 1000 nM | 20 min | – | –
22 | CCCOC(=O)c1cccc(C(=O)Nc2cccc(CN3CCC(Nc4cccc5cnccc45)CC3)c2)c1 [Compound 33] | < 100 nM | > 120 min | – | < 20 min | – | –
23 | COCCOC(=O)c1cccc(C(=O)Nc2cccc(CN3CCC(Nc4cccc5cnccc45)CC3)c2)c1 [Compound 34] | < 100 nM | > 120 min | 300 to 1000 nM | < 20 min | – | –
24 | O=C(Nc1cccc(CN2CCC(Nc3cccc4cnccc34)CC2)c1)c1cccc(C(=O)OCC2CCCO2)c1 (stereo not shown) [Compound 35] | < 100 nM | > 120 min | – | < 20 min | – | –
25 | CCCOC(=O)c1ccc(C(=O)Nc2cccc(CN3CCC(Nc4cccc5cnccc45)CC3)c2)cc1 [Compound 36] | < 100 nM | – | – | – | – | –
26 | COCCOC(=O)c1ccc(C(=O)Nc2cccc(CN3CCC(Nc4cccc5cnccc45)CC3)c2)cc1 [Compound 37] | < 100 nM | – | – | – | – | –
27 | O=C(Nc1cccc(CN2CCC(Nc3cccc4cnccc34)CC2)c1)c1ccc(C(=O)OCC2CCCO2)cc1 (stereo not shown) [Compound 38] | < 100 nM | – | – | – | – | –
28 | C[C@@H](N)[C@H]1CC[C@H](C(=O)Nc2ccncc2)CC1 [Compound Y-27632, Y-27632, reference compound] | – | – | 300 to 1000 nM | – | – | –
29 | O=S(=O)(c1cccc2cnccc12)N1CCCNCC1 [Fasudil, reference compound] | – | – | 1000 to 10000 nM | – | – | –
30 | O=C(O)c1ccc(C(=O)Nc2cccc(CNC3CCC(Nc4cccc5cnccc45)CC3)c2)cc1 (stereo not shown) [Met1] | – | – | – | – | – | > 20 fold
